Data on 16 compounds can be found in patent US7183267B2, “β-lactamase inhibitors and methods of use thereof” (priority 2003, dated 2007).

The target in assay [1] is T1, TEM-1 β-lactamase (Escherichia coli, UniProt P62593). Description: TEM-1 β-lactamase inhibition assay (nitrocefin hydrolysis, 486 nm). The class given is biochemical. As to the method:
(§1) The inhibition of TEM-1 β-lactamase was determined spectrophotometrically. B-lactamase activity was followed by measuring the hydrolysis of nitrocefin, [3-(2,4-dinitrostyryl)-(6R, 7R)-7-(2-thienylacetamido)-ceph-3-em-4-carboxylic acid, E-isomer], (Calbiochem, San Diego, Calif., USA) at 486 nm. Inhibition assays were performed at 25° C. in 50 mM sodium phosphate, 5% DMSO, pH 7.0. […] Inhibitor was added to the enzyme and incubated for ten minutes before the addition of substrate. Inhibition constants (Ki) for the inhibitors are obtained at the desired temperature and solvent conditions by measuring the rate of substrate hydrolysis at increasing amounts of inhibitors.
(§2) The competitive inhibition of β-lactamase was determined spectrophotometrically using a Varian (Walnut Creek, Calif.) Cary 100 UV-Visible spectrophotometer. β-lactamase activity was followed by measuring the hydrolysis of nitrocefin, [3-(2,4-dinitrostyryl)-(6R, 7R)-7-(2-thienylacetamido)-ceph-3-em-4-carboxylic acid, E-isomer], (Calbiochem, San Diego, Calif.) at 486 nm. Inhibition assays were performed at 25° C. in 50 mM sodium phosphate, 5% DMSO, pH 7.0. […] Penicillin G (Sigma, St. Louis, Mo.) was also used as a substrate to determine KM and kcat.
(§3) Inhibitor was added to protein and incubated for ten minutes before the addition of substrate. Inhibition constants were determined by measuring the loss of P-lactamase activity with increasing inhibitor concentrations and fitting the data to standard equations for competitive inhibition.
(§4) These methods can also be used to express and assay recombinant TEM-1 variant of β-lactamase.

The target in assay [2] is T2, AmpC β-lactamase (Escherichia coli, UniProt P00811).
T2 construct: made in house; host or cells: E. coli BL21 (DE3)
As to the kind of experiment: AmpC β-lactamase competitive inhibition assay (nitrocefin hydrolysis). It is filed as biochemical. As to the method: The gene for AmpC β-lactamase (accession number P00811) was obtained from Escherichia coli K12 strain W3110 (American Type Culture Collection, Rockville Md.). E. coli was grown and plasmid (F-lacIq lacPL8 ampC::lambdacI+) was isolated via Qiagen (Valencia, Calif.) mini prep. The gene for AmpC was amplified in two pieces via polymerase chain reaction, ligated and purified by agarose gel electrophoresis. The ligated gene was inserted into a pET200 vector via a TOPO reaction (Invitrogen, Carlsbad, Calif.).
BL21 (DE3) (Invitrogen) cells were transformed by heat-shock with the prepared plasmid. These cells were grown to an OD600 of 0.8 at 37° C. Isopropylthiogalactoside (IPTG) was added to 1 mM, incubation temperature decreased to 25° C. and the cells were grown for an additional 18 hours. After 18 hours, the E. coli was pelleted by centrifugation, and discarded. The growth media was concentrated and dialyzed versus 100 mM Tris, pH 7.0. This solution was run through an equilibrated Q-resin column, and washed with excess 100 mM Tris, pH 7.0.
as §2, §3

For assay [3], the target named is T2, AmpC β-lactamase. Conditions: binding to AmpC; ITC. As to the method: (§5) Isothermal titration calorimetry was performed on a high-precision VP-ITC titration calorimeter (Microcal Inc., Northampton, Mass.). β-Lactamase solutions were titrated with inhibitors in 50 mM sodium phosphate, 2% DMSO, pH 7.0, with β-lactamase concentrations ranging from 15 to 25 μM and inhibitor concentrations ranging from 300 to 1000 μM. The heat evolved from each injection was obtained by integrating the calorimetric signal. Heat of binding was obtained as the difference between the heat of reaction and the heat of inhibitor dilution. Data were analyzed using Origin 7.0 (OriginLab Corporation, Northampton, Mass.).
Isothermal titration calorimetry was undertaken to determine the thermodynamic characteristics of binding to AmpC β-lactamase.

Assay [4] addresses T1, TEM-1 β-lactamase. As to the kind of experiment: Isothermal titration calorimetry, binding to TEM-1 β-lactamase (Example 17). The settings on record: ITC. As to the method: as §5, §4
Also shown are the results obtained for β-lactamase variant TEM-1.

Another assay has as its target β-lactamase mutant E104K (Escherichia coli, UniProt P62593, E102K). The class given is biochemical. The settings on record: number higher than 1 reflects a loss of potency against mutant. As to the method: as §1
(§6) Three of the most important mutations are M69I, R244S and E104K.

A further assay addresses β-lactamase mutant M69I (Escherichia coli, UniProt P62593, M67I). It is filed as biochemical. The settings on record: number higher than 1 reflects a loss of potency against mutant. As to the method:
as §1, §6

A further assay concerns the target β-lactamase mutant R244S (Escherichia coli, UniProt P62593, R241S). It is filed as biochemical. Conditions: number higher than 1 reflects a loss of potency against mutant. As to the method:
as §1, §6

Setting [5] is: Ki, 25° C., 50 mM sodium phosphate, 5% DMSO, pH 7.0, enzyme 5 nM, nitrocefin 167 μM.

Molecules are shown by their SMILES. Read-outs that look alike come from different tables or passages of the source.

`O=C(Oc1cc(OC(=O)c2cc(B(O)O)cc([N+](=O)[O-])c2)cc(OC(=O)c2cc(B(O)O)cc([N+](=O)[O-])c2)c1)c1cc(B(O)O)cc([N+](=O)[O-])c1` [Compound (12a), Tris(3-borono-5-nitrobenzoic acid), 1,3,5-trihydroxybenzene ester] had a Ki on TEM-1 β-lactamase [1] of 6.9 µM. In addition, affinity at AmpC β-lactamase [2] was put at a Ki of 1.94 µM. On AmpC β-lactamase [3], the ΔG is -7.231 kcal/mol, the ΔH was -1.47 kcal/mol and the “−TΔS” value was -5.761 kcal/mol. Besides, at TEM-1 β-lactamase [4], the ΔG was -6.468 kcal/mol, the ΔH is -0.69 kcal/mol and the “−TΔS” value is -5.778 kcal/mol.

As for `CC(C)(C)c1cc(OC(=O)c2cc(B(O)O)cc([N+](=O)[O-])c2)ccc1OC(=O)c1cc(B(O)O)cc([N+](=O)[O-])c1` [Compound (2d)], at TEM-1 β-lactamase [1] (Ki, TEM-1 β-lactamase), the Ki was 10.9 µM. On AmpC β-lactamase [2], the affinity, expressed as Ki, was 6.27 µM. At AmpC β-lactamase [3], the ΔG is -7.098 kcal/mol, the ΔH was 0 kcal/mol and the “−TΔS” value is -7.098 kcal/mol. Moreover, on TEM-1 β-lactamase [4], the ΔG was -6.513 kcal/mol, the ΔH was -0.859 kcal/mol and the “−TΔS” value was -5.654 kcal/mol.

`CCOC(=O)c1ccccc1OC(=O)c1cc(B(O)O)cc([N+](=O)[O-])c1` [Compound (1i), 3-(2-Ethoxycarbonyl-phenoxycarbonyl)-5-nitrophenylboronic acid] registered a Ki at TEM-1 β-lactamase [1] (setting [5]) of 101 ± 4 µM. At β-lactamase mutant E104K, the “Loss of potency: ratio of the inhibitory constant between mutant and wild type (Potencywt/Potencymutant), E104K” value was 0.36. Also, the “Loss of potency: ratio of the inhibitory constant between mutant and wild type (Potencywt/Potencymutant), M69I” value at β-lactamase mutant M69I is listed as 0.50. Further, the “Loss of potency: ratio of the inhibitory constant between mutant and wild type (Potencywt/Potencymutant), R244S” value on β-lactamase mutant R244S amounted to 0.34.

As for `CC1(C)[C@H](C(=O)O)N2C(=O)C[C@H]2S1(=O)=O` [Sulbactam, sulbactam, reference compound], at β-lactamase mutant E104K, the “Loss of potency: ratio of the inhibitory constant between mutant and wild type (Potencywt/Potencymutant), E104K” value is reported as 1. Besides, the “Loss of potency: ratio of the inhibitory constant between mutant and wild type (Potencywt/Potencymutant), M69I” value on β-lactamase mutant M69I came out at 15. The “Loss of potency: ratio of the inhibitory constant between mutant and wild type (Potencywt/Potencymutant), R244S” value at β-lactamase mutant R244S is on record as 93.

On TEM-1 β-lactamase [1] (setting [5]), `O=C(Oc1cccc(B(O)O)c1)c1cc(B(O)O)cc([N+](=O)[O-])c1` [Compound (1v), 3-(3-Boronophenoxycarbonyl)-5-nitrophenylboronic acid] came in with a Ki of 32 ± 1.1 µM. This compound came in with an inhibitory constant (Ki) on AmpC β-lactamase [2] of 5.01 µM. Besides, on AmpC β-lactamase [3], the ΔG was -7.221 kcal/mol, the ΔH was -10.412 kcal/mol and the “−TΔS” value was determined as 3.191 kcal/mol.

On TEM-1 β-lactamase [1] (setting [5]), `O=C(OCc1ccccc1)c1cccc(B(O)O)c1` [Compound F1001] registered a Ki of 104 µM. On AmpC β-lactamase [2], this compound showed a Ki of 1.79 µM. Besides, on AmpC β-lactamase [3], the ΔG was -6.83 kcal/mol, the ΔH is -0.644 kcal/mol and the “−TΔS” value was -6.186 kcal/mol.

Regarding `O=C(Oc1c(Cl)cccc1[N+](=O)[O-])c1ccc(B(O)O)cc1F` [(8a), 4-(2-Chloro-6-nitrophenoxycarbonyl)-3-fluorophenylboronic acid], the Ki on TEM-1 β-lactamase [1] (setting [5]) was found to be 43 ± 1.6 µM. The compound also displayed a Ki on AmpC β-lactamase [2] of 0.913 µM. On AmpC β-lactamase [3], the ΔG is -8.19 kcal/mol, the ΔH was -8.486 kcal/mol and the “−TΔS” value was determined as 0.296 kcal/mol.

On to `O=C(Oc1ccc(OC(=O)c2ccc(B(O)O)cc2F)c(Cl)c1)c1ccc(B(O)O)cc1F` [Compound (7a), 4-Borono-2-fluorobenzoic acid 2-chloro-1,4-phenylene ester], for which the Ki on TEM-1 β-lactamase [1] (setting [5]) was 122 ± 10 µM. This compound gave a Ki at AmpC β-lactamase [2] of 0.873 µM. For the same compound, at AmpC β-lactamase [3], the ΔG is -7.314 kcal/mol, the ΔH is -9.936 kcal/mol and the “−TΔS” value amounted to 2.622 kcal/mol.

In turn, `O=C(OCc1ccccc1COC(=O)c1cc(B(O)O)cc([N+](=O)[O-])c1)c1cc(B(O)O)cc([N+](=O)[O-])c1` [Compound (10a), 3-Borono-5-nitrobenzoic acid 1,2-benzenedimethanol ester] showed a Ki at TEM-1 β-lactamase [1] (Ki, TEM-1 β-lactamase) of 9.7 µM. Besides, the affinity at AmpC β-lactamase [2] corresponds to a Ki of 0.457 µM. Also, at AmpC β-lactamase [3], the ΔG is -8.59 kcal/mol, the ΔH is -4.149 kcal/mol and the “−TΔS” value was -4.441 kcal/mol. Besides, on TEM-1 β-lactamase [4], the ΔG is -7.183 kcal/mol, the ΔH is -0.982 kcal/mol and the “−TΔS” value was -6.201 kcal/mol.

For `C[C@]1(Cn2ccnn2)[C@H](C(=O)O)N2C(=O)C[C@H]2S1(=O)=O` [Tazobactam, tazobactam, reference compound], at β-lactamase mutant E104K, the “Loss of potency: ratio of the inhibitory constant between mutant and wild type (Potencywt/Potencymutant), E104K” value was 1. Also, the “Loss of potency: ratio of the inhibitory constant between mutant and wild type (Potencywt/Potencymutant), M69I” value at β-lactamase mutant M69I was determined as 31. The “Loss of potency: ratio of the inhibitory constant between mutant and wild type (Potencywt/Potencymutant), R244S” value at β-lactamase mutant R244S was 105.

For `O=C(Oc1ccc(OC(=O)c2cc(B(O)O)cc([N+](=O)[O-])c2)c(Cl)c1)c1cc(B(O)O)cc([N+](=O)[O-])c1` [Compound (2b), 3-Borono-5-nitrobenzoic acid 2-chloro-1,4-phenylene ester], the Ki amounted to 15.2 ± 1.4 µM at TEM-1 β-lactamase [1] (setting [5]); 15.2 µM at TEM-1 β-lactamase [1] (Ki, TEM-1 β-lactamase); 2.92 µM at AmpC β-lactamase [2]. In addition, the results for the ΔG at AmpC β-lactamase [3] and on TEM-1 β-lactamase [4] were -7.736 kcal/mol and -7.864 kcal/mol, respectively. Further, the results for the ΔH at AmpC β-lactamase [3] and at TEM-1 β-lactamase [4] were -0.225 kcal/mol and -0.52 kcal/mol, respectively. Besides, the “−TΔS” value at AmpC β-lactamase [3] is -7.511 kcal/mol; on TEM-1 β-lactamase [4], -7.344 kcal/mol.

In the case of `O=C(O)[C@H]1/C(=C/CO)O[C@@H]2CC(=O)N21` [Clavulanic, clavulanic acid, reference compound], the “Loss of potency: ratio of the inhibitory constant between mutant and wild type (Potencywt/Potencymutant), E104K” value at β-lactamase mutant E104K turned out to be 0.67. Further, the “Loss of potency: ratio of the inhibitory constant between mutant and wild type (Potencywt/Potencymutant), M69I” value at β-lactamase mutant M69I is recorded as 163. In addition, the “Loss of potency: ratio of the inhibitory constant between mutant and wild type (Potencywt/Potencymutant), R244S” value at β-lactamase mutant R244S is reported as 38.

`Nc1cc(B(O)O)cc(C(=O)OCc2cccc(B(O)O)c2)c1` [Compound (3f), 3-(3-Boronobenzyloxycarbonyl)-5-aminophenylboronic acid] displayed a Ki at AmpC β-lactamase [2] of 0.724 µM. On AmpC β-lactamase [3], the ΔG was -8.151 kcal/mol, the ΔH is -9.325 kcal/mol and the “−TΔS” value turned out to be 1.174 kcal/mol.

On to `O=C(Oc1cccc(B(O)O)c1)c1c(Cl)cccc1Cl` [Compound (6a), 3-(2,6-Dichlorophenylcarbonyloxy)phenyl boronic acid], for which affinity on TEM-1 β-lactamase [1] (setting [5]) was put at a Ki of 28 ± 2.1 µM. This compound also had a Ki on AmpC β-lactamase [2] of 1.53 µM. Moreover, at AmpC β-lactamase [3], the ΔG was -7.757 kcal/mol, the ΔH is -6.538 kcal/mol and the “−TΔS” value is -1.219 kcal/mol.

`O=C(Oc1c(Cl)c(Cl)c(OC(=O)c2cc(B(O)O)cc([N+](=O)[O-])c2)c(Cl)c1Cl)c1cc(B(O)O)cc([N+](=O)[O-])c1` [Compound (2c)] displayed a Ki on TEM-1 β-lactamase [1] (Ki, TEM-1 β-lactamase) of 6.7 µM. This compound also returned a Ki at AmpC β-lactamase [2] of 3.68 µM. Besides, at AmpC β-lactamase [3], the ΔG was -7.115 kcal/mol, the ΔH is -0.473 kcal/mol and the “−TΔS” value was -6.642 kcal/mol. On TEM-1 β-lactamase [4], the ΔG was -5.814 kcal/mol, the ΔH is -1.648 kcal/mol and the “−TΔS” value is -4.166 kcal/mol.

Compound `O=C(OCc1cccc(B(O)O)c1)c1cc(B(O)O)cc([N+](=O)[O-])c1` [Compound (3d), 3-(3-Boronobenzyloxycarbonyl)-5-nitrophenylboronic acid] registered a Ki on TEM-1 β-lactamase [1] (setting [5]) of 55.7 ± 4.3 µM. Further, the affinity at AmpC β-lactamase [2] corresponds to a Ki of 1.03 µM. Also, on AmpC β-lactamase [3], the ΔG was -7.442 kcal/mol, the ΔH is -15.637 kcal/mol and the “−TΔS” value amounted to 8.195 kcal/mol.
